The results in this text go back to patent US20060194883A1, “Mmp expression inhibitor” (EISAI CO., LTD, priority 2003, published 2006).

Holding throughout (type): cell-based
The test system of one test is p27. In words: CDK inhibitor expression by RT-PCR and Western blot in hepatic cancer cells. The following applies: 10^−6 to 10^−4 M. As for the experimental part:
(§1) To investigate the mechanism of inhibition of cell proliferation, genes involved in promoting the cell cycle were focused on, and changes caused by addition of menatetrenone in the amount of expression of CDK inhibitors p21, p27 and p16 which inhibit cyclin dependent kinase (CDK), an enzyme which promotes the cell cycle, were analyzed by the RT-PCR and Western blot methods. In this test, menatetrenone was added at concentrations of 0 M, 10^−6 M, 10^−5 M and 10^−4 M to HepG2, Huh7, Hep3B and HLE hepatic cancer cell lines, RNA was collected after 48 hours, and 1 μg of total RNA was subjected to RT-PCR to investigate expression of p21, p27 and p16. RT-PCR was performed on GAPDH (glyceraldehyde 3-phosphate dehydrogenase) as a control. In this test, menatetrenone was added at concentrations of 0 M, 10^−6 M, 10^−5 M and 10^−4 M to HepG2, Huh7, Hep3B and HLE hepatic cancer cell lines, proteins were extracted from the various cells, subjected to SDS-PAGE electrophoresis, blotted on PVP membranes and then incubated with p21 and p27 antibodies, and p21 and p27 protein expression was investigated by ECL.

In a further test the test system is p21. The test is described as above. The note with it: 10^−6 to 10^−4 M. The method, then:
as §1

For another test, the system named is MMP-14 (MT1-MMP). In words: RT-PCR of invasion-related factors in hepatic cancer cells. The note with it: hepatic cancer cells (HepG2, Hep3B, Huh7). As for the experimental part: Test was performed by RT-PCR to investigate MMP expression. This test was to investigate expression of various MMPs (MMP-1, MMP-2, MMP-3, MMP-7, MMP-9 and MMP-14 (MT1-MMP)) and of transcription factor Ets-1 that affect MMP expression and the extracellular matrix receptor β1 integrin when menatetrenone was added to various hepatic cancer cells (HepG2, Hep3B, Huh7).

The test system of the next test is MMP-3. In words: Western blot of MMP protein expression in hepatic cancer cells. The note with it: hepatic cancer cells (HepG2, Hep3B, Huh7). As for the experimental part:
(§2) Testing was performed by Western blot to investigate MMP expression. In this test protein expressions of MMP-1 and MMP-3 were investigated when menatetrenone was added to various hepatic cancer cells (HepG2, Hep3B, Huh7).

The next test concerns MMP-1. The description is as above. The following applies: hepatic cancer cells (HepG2, Hep3B, Huh7). As for the experimental part:
as §2

For test [1], the system named is Huh7 hepatic cancer cells. In words: cell cycle analysis by flow cytometry (FACS). The following applies: 10^−6 to 10^−4 M, 48 hours. The method, then:
(§3) To investigate the effects of menatetrenone on the cell cycles of cancer cells, distributions according to DNA amount in hepatic cancer cells to which menatetrenone had been added were analyzed by flow cytometry (FACS). In this test, menatetrenone was added at concentrations of 0 M, 10^−6 M, 10^−5 M and 10^−4 m to HepG2, Huh7, Hep3B and HLE hepatic cancer cells, and changes in the cell cycles were observed by FACS 48 hours later.

A further test relates to HLE hepatic cancer cells. In words: cell cycle analysis by flow cytometry (FACS). The following applies: 10^−6 to 10^−4 M, 48 hours. As for the experimental part:
as §3
(A flow cytometer gives signals particle by particle.)

Test [2] relates to Hep3B hepatic cancer cells. In words: cell cycle analysis by flow cytometry (FACS). The following applies: 10^−6 to 10^−4 M, 48 hours. The method, then: as §3
Test [3] concerns HepG2 hepatic cancer cells. In words: cell cycle analysis by flow cytometry (FACS). The following applies: 10^−6 to 10^−4 M, 48 hours. The method, then: as §3
Test [4] has as its system hepatic cancer cells (HepG2). In words: Matrigel invasion test (double chamber). The following applies: 10^−6 to 10^−4 M, 24 hours, NIH3T3 feeder. The method, then: To investigate the effect of menatetrenone in inhibiting invasion and metastasis of cancer cells, menatetrenone was added to hepatic cancer cells (HepG2) at concentrations of 0 M, 10^−6 M, 10^−5 M and 10^−4 M, and ability of the cancer cells to invade Matrigel was measured. In this test, cancer cells were spread on Matrigel which had been coated on the upper chamber of a double chamber, menatetrenone was added thereto. NIH3T3 cells were spread on the lower chamber as a feeder. The number of cells that had passed through the Matrigel and migrated to the bottom of the upper chamber after 24 hours was observed microscopically.

Take `CC(C)=CCC/C(C)=C/CC/C(C)=C/CC/C(C)=C/CC1=C(C)C(=O)c2ccccc2C1=O` [menatetrenone, 2-methyl-3-tetraprenyl-1,4-naphthoquinone]: the p27 expression entry in the test with p27 (Hep3B cells) was “no change”; in the test on p27 (Huh7 cells), “no changes”. Also, the “p27 mRNA expression” value in the test with p27 (HepG2 cells, 48 hours) is “increases”. For the same compound, the p21 expression result in the test on p21 (Hep3B cells) was “slight increase”; in the test on p21 (Huh7 cells) it was “no changes”. In the test with p21 (HepG2 cells, 48 hours), the “p21 mRNA expression” value is given as “increases”. For the same compound, the “expression of mRNA of MMP-14” value in the test with MMP-14 (MT1-MMP) is on record as “dose-dependently inhibited”. In addition, the “protein expression of MMP-3” value with MMP-3 is listed as “inhibited”. The “protein expression of MMP-1” value in the test with MMP-1 was “inhibited”. Besides, the G2-phase cells entry (in [1]; with HLE hepatic cancer cells; in [2]; in test [3]) was “decreased” each time. Besides, the “proportion of G1-phase cells” value (in test [1]; in the test with HLE hepatic cancer cells; in test [2]; in [3]) was “increased dose-dependently” in each case. Further, in [4], the “ability of cancer cells to invade Matrigel” value is given as “dose-dependently inhibits”.
